Test results published in patent US20010049374A1 (priority 1997, published 2001).
pIC50: −log10 of the molar value. Like-named read-outs stand apart in the source and are kept apart here.

Molecular target: T1, urokinase enzyme Abbokinase (Homo sapiens, UniProt P00749)
T1 construct: purchased Abbott Laboratories, Abbott Park, Ill
Experiment: Determination of urokinase inhibition (Abbokinase, chromogenic substrate S-2444)
Format: biochemical
Settings: substrate S-2444 at 200 μM, enzyme 2-3 nM, pH 7.4, 405 nm

[1] = Inhibitory potency against urokinase, read-out: IC50
[2] = IC50, Inhibitory potency against urokinase

Experimental: Several vials were reconstituted as directed on the vial, aliquoted and stored frozen. The enzyme was further diluted in assay buffer and 10 μl was used in the assay. Enzyme concentration in the assay was 2-3 nM. […] The Spectromax® calculated the reaction rates which were used to calculate percent inhibition of the compounds of this invention versus the reaction rate of the enzyme in the absence of any inhibitor. The Ki's of the inhibitors were calculated from the percent inhibition and previously established Km.

Compound | pIC50 [1] | pIC50 [2]
COC(=O)CCCCOc1ccc2ccc(C(=N)N)cc2c1 [Example 119, methyl 5-[7-[(aminoiminomethyl)-2-naphthalenyl]oxy]pentanoate] | 5.36 | –
N=C(N)c1ccc2cc(NC(=O)C3CCC(CN)CC3)ccc2c1 (centres unmarked) [Example 139, N-[6-(aminoiminomethyl)-2-naphthalenyl]-4-4-(aminomethyl)cyclohexanescarboxamide] | – | 5.58
N=C(N)c1ccc2cc(C#CCCc3ccccc3)ccc2c1 [Example 28, 6-(4-Phenylbutynyl)-2-naphthalenecarboximidamide] | 5.68 | –
6-(aminoiminomethyl)-N-phenyl-4-(tetrahydro-3-furanyl)-2-naphthalenecarboxamide [Example 180] | 7.01 | –
N-[7-(aminoiminomethyl)-1-naphthalenyl]benzenemethanesulfonamide [Example 20] | 6.10 | –
N=C(N)c1ccc2ccc(OCCN3CCOCC3)cc2c1 [Example 206, 7-[2-(4-morpholinyl)ethoxy]-2-naphthalenecarboximidamide] | – | 5.24
COc1ccc2ccc(C(=N)N)cc2c1Sc1ccccc1 [Example 149, 7-methoxy-8-(phenylthio)-2-naphthalenecarboximidamide] | – | 5.42
6-(aminoiminomethyl)-N-(6-quinolinyl)-2-naphthalenecarboxamide [Example 202] | 6.10 | –
6-(aminoiminomethyl)-N-(3, 4, 5-trimethoxyphenyl)-2-naphthalenecarboxamide [Example 195] | 5.89 | –
CC(=O)C=Cc1ccc2cc(C(=N)N)ccc2c1 [Example 52, 6-(3-Oxo-1-butenyl)-2-naphthalenecarboximidamide] | – | 5.33
COc1ccc2ccc(C(=N)N)cc2c1C1=CC(=O)CC1 [Example 131, 7-methoxy-8-(3-oxo-1-cyclopenten-1-yl)-2-naphthalenecarboximidamide] | – | 5.38
1,1-dimethylethyl [[4-[[[6-(aminoiminomethyl)-2-naphathalenyl]amino]carbonyl]phenyl]methyl]carbamate [Example 135] | 5.72 | –
6-(aminoiminomethyl)-N-[3-(cyclopentyloxy)phenyl]-2-naphthalenecarboxamide [Example 220] | 7.52 | –
CC(C)(C)OC(=O)Nc1ccc(NC(=O)Nc2ccc3cc(C(=N)N)ccc3c2)cc1 [Example 79, 1,1-dimethylethyl [4-[[[6-aminoiminomethyl)-2-naphthalenyl)amino]carbonyl]amino]phenyl carbamate] | 6.02 | –
N=C(N)c1ccc2cc(-c3ncc(-c4ccccc4)s3)ccc2c1 [Example 145, 6-(5-phenyl-2-thiazolyl)-2-naphthalenecarboximidamide] | – | 5.59
[H]/N=C(/N)c1ccc2cc(C=Cc3ccco3)ccc2c1 [Example 81, (E)-6-[2-(2-Furanyl)ethenyl]-2-naphthalenecarboximidamide] | – | 5.49
N=C(N)c1ccc2cc(-c3cccc(C=O)c3)ccc2c1 [Example 111, 6-(3-formylphenyl)-2-naphthalenecarboximidamide] | – | 5.38
methyl [7-(aminoiminomethyl)-2-methoxy-I-naphthalenyl)carbamate [Example 99] | 5.52 | –
N=C(N)c1ccc2cc(C#Cc3ccccn3)ccc2c1 [Example 179, 6-(2-pyridinylethynyl)-2-naphthalenecarboximidamide] | 5.79 | –
COc1ccc2ccc(C(=N)N)cc2c1-c1cc2ccccc2o1 [Example 60, 7-Methoxy-8-(2-benzofuranyl)naphthalene-2-carboximidamide] | – | 6.14
6-(aminoiminomethyl)-N-(1H-indol-5-yl)-2-naphthalenecarboxamide [Example 205] | 6.47 | –

Compound | pIC50 [1] | pIC50 [2]
N=C(N)c1ccc2cc(-c3ccccc3C=O)ccc2c1 [Example 50, 6-(2-Formylphenyl)-2-naphthalenecarboximidamide] | – | 5.21
3-[(7-Aminoiminomethyl-2-methoxy-1-naphthalenyl)oxy]propene [Example 22] | 5.77 | –
COc1cccc(-c2ccc3cc(C(=N)N)ccc3c2)c1 [Example 47, 6-(3-Methoxyphenyl)-2-naphthalenecarboximidamide] | – | 5.32
N=C(N)c1ccc2cc(OCc3ccc(CO)cc3)ccc2c1 [Example 176, 6-[4-[(hydroxymethyl)phenyl]methoxy]-2-naphthalenecarboximidamide] | – | 5.30
N-(6-Aminoiminomethyl-2-naphthalenyl)-N′-benzylurea [Example 69] | 5.86 | –
6-(aminoiminomethyl)-4-[1-(methylsulfonyl)-1H-pyrazol-4-yl]-N-phenyl-2-naphthalenecarboxamide [Example 153] | 6.06 | –
1-[(7-aminoiminomethyl-2-methoxy-1-naphthalenyl)oxy]-3-bromopropane [Example 21] | 5.77 | –
1-[(7-Aminoiminomethyl-2-methoxy-1-naphthalenyl)oxy]-3-phenylpropane [Example 23] | 5.40 | –
N=C(N)c1ccc2cc(OCC(=O)O)ccc2c1 [Example 212] | 5.29 | –
N=C(N)c1ccc2cc(C#CCNC(=O)c3cccc(N)c3)ccc2c1 [Example 35] | 5.40 | –
6-(aminoiminomethyl)-N-(5-methyl-2-pyridinyl)-2-naphthalenecarboxamide [Example 198] | 6.30 | –
6-(aminoiminomethyl)-4-(3-furanyl)-N-(1H-pyrazol-3-yl)-2-naphthalenecarboxamide [Example 116] | 7.35 | –
6-(aminoiminomethyl)-N-(4-methylphenyl)-2-naphthalenecarboxamide [Example 132] | 6.02 | –
6-(aminoiminomethyl)-N-(3-propoxyphenyl)-2-naphthalenecarboxamide [Example 218] | 7.07 | –
(S)-2-Amino-N-[1-[(6-aminoiminomethyl-2-naphthalenyl)carbonyl]cyclohexyl]propionamide [Example 37] | 5.63 | –
6-[2-(2-Thiomethoxoxyethyl)phenyl]naphthalene-2-carboximidamide [Example 58] | 5.60 | –
N-[7-(aminoiminomethyl )-1-naphthalenyl]urea [Example 161] | 5.80 | –
COc1ccc2ccc(C(=N)N)cc2c1-c1cn[nH]c1 [Example 53, 7-Methoxy-8-(1H-pyrazol-4-yl)-2-naphthalenecarboximidamide] | – | 5.53
N-[7-(aminoiminomethyl)-1-naphthalenyl)-2-methoxyacetamide [Example 160] | 5.58 | –
N-(6-aminoiminomethyl-2-naphthalenyl)-N′-benzyloxyurea [Example 75] | 5.68 | –
[H]/N=C(/N)c1ccc2cc(C=Cc3ccc([C@@H](N)CO)cc3)ccc2c1 [Example 105, (E)-6-[2-[4-(1R-amino-2-hydroxyethyl)phenyl]ethenyl]-2-naphthalenecarboximidamide] | – | 6.08

Compound | pIC50 [1] | pIC50 [2]
(E)-4-[2-(6-Aminoiminomethyl-2-naphthalenyl)ethenyl]benzoic acid [Example 84] | 5.00 | –
5-[[6-(aminoiminomethyl)-2-naphthalenyl]oxy]pentanoic acid [Example 129] | 5.32 | –
6-(aminoiminomethyl)-4-(3-furanyl)-N-(3-pyridinyl)-2-naphthalenecarboxamide [Example 117] | 6.56 | –
[H]/N=C(/N)c1ccc2cc(C=CSc3ccccc3)ccc2c1 [Example 80, (E)-6-[2-(Phenylthio)ethenyl]-2-naphthalenecarboximidamide] | – | 5.71
COc1ccc2ccc(C(=N)N)cc2c1Nc1cnccn1 [Example 150, 7-methoxy-8-(pyrazinylamino)-2-naphthalenecarboximidamide] | – | 6.80
N-[6-(aminoiminomethyl)-2-naphthalenyl]-N′-(4-aminophenyl)urea [Example 138] | 6.34 | –
4-[[[7-(aminoiminomethyl)-1-(2-pyrimidinylamino)-2-naphthalenyl]oxy]methyl]benzoic acid [Example 134] | 7.19 | –
2-[(7-Aminoiminomethyl-3-methoxy-1-naphthalenyl)oxy]acetamide [Example 39] | 4.91 | –
[H]/N=C(/N)c1ccc2cc(C=Cc3cccs3)ccc2c1 [Example 45, (E)-6-[2-(2-Thienyl)ethenyl]-2-naphthalenecarboximidamide] | – | 5.53
COc1ccc2ccc(C(=N)N)cc2c1OC [Example 1, 7,8-Dimethoxy-2-naphthalenecarboximidamide] | – | 5.18
Methyl [3-methoxy-6-(aminoiminomethyl)-4-naphthalenyl]carbamate [Example 90] | 7.15 | –
N-(6-aminoiminomethyl-2-naphthalenyl)-N′-cyclohexylurea [Example 74] | 5.79 | –
N=C(N)c1ccc2ccc(OCCO)c(I)c2c1 [Example 29, 7-(2-Hydroxyethoxy)-8-iodo-2-naphthalenecarboximidamide] | – | 5.60
COC(=O)c1ccc(COc2ccc3ccc(C(N)=NO)cc3c2)cc1 [Example 182] | – | < 4.52
N-phenyl-6-aminoiminomethyl-2-naphthalenecarboxamide [Example 55] | 6.05 | –
NC(=NO)c1ccc2cc(C(=O)Nc3ccccc3)ccc2c1 [Example 171] | – | < 4.52
COC(=O)Nc1cc(C(=O)Nc2ccc(CN)cc2)cc2ccc(C(=N)N)cc12 [Example 141, methyl [7-(aminoiminomethyl)-3-[[[4-(aminomethyl)phenyl]amino]carbonyl]-1-naphathalenyl]carbamate] | 8.93 | –
N-[7-(aminoiminomethyl)-1-naphthalenyl]-2-(phenylmethoxy)acetamide [Example 18] | 6.38 | –
N=C(N)c1ccc2cc(C(=O)Nc3ncc(Br)s3)ccc2c1 [Example 197] | 5.69 | –
6-(aminoiminomethyl)-4-[5-(ethylsulfonyl)-3-furanyl]-N-phenyl-2-naphthalenecarboxamide [Example 227] | 7.82 | –
